Read-outs that look alike come from different tables or passages of the source.
Key:
SR = test: cells; assay type: cell-based; conditions: Homo sapiens, 48 h; for CC50: read-out: Log10 LC50 (converted); for GI50: read-out: Log10 GI50 (converted)
OVCAR-3 = test: cells; assay type: cell-based; conditions: Homo sapiens; for CC50: read-out: Log10 LC50 (converted)
60 cell line panel = test: NCI 60 cell line panel, whole panel; conditions: panel
DU-145 = test: cells; assay type: cell-based
HCT-15 = test: cells; assay type: cell-based; conditions: Homo sapiens; for CC50: read-out: Log10 LC50 (converted)
KM12 = test: cells; assay type: cell-based; conditions: Homo sapiens; for GI50: read-out: Log10 GI50 (converted)
CCRF-CEM = test: cells; assay type: cell-based; conditions: Homo sapiens, 48 h; for CC50: read-out: Log10 LC50 (converted)
HT29 = test: cells; assay type: cell-based; conditions: Homo sapiens; for GI50: read-out: Log10 GI50 (converted)
OVCAR-8 = test: cells; assay type: cell-based; conditions: Homo sapiens
HOP-62 = test: cells; assay type: cell-based; conditions: Homo sapiens, HOP-62, non-small cell lung cancer, 48 h
MCF7 = test: cells; assay type: cell-based; conditions: Homo sapiens; for IC (TGI): read-out: Log10 TGI; for GI50: read-out: Log10 GI50 (converted)
CAKI-1 = test: NCI 60 cell line panel screening assay (SRB), CAKI-1; assay type: cell-based; conditions: Homo sapiens, CAKI-1, renal cancer, 48 h
NCI-H23 = test: cells; assay type: cell-based; conditions: Homo sapiens, NCI-H23, non-small cell lung cancer, 48 h
SNB-75 = test: cells; assay type: cell-based; conditions: Homo sapiens; for CC50: read-out: Log10 LC50 (converted); for GI50: read-out: Log10 GI50 (converted)
K-562 = test: cells; assay type: cell-based; conditions: Homo sapiens; for CC50: read-out: Log10 LC50 (converted)
A498 = test: cells; assay type: cell-based; conditions: Homo sapiens; for IC (TGI): read-out: Log10 TGI
HOP-92 = test: cells; assay type: cell-based; conditions: Homo sapiens
BT-549 = test: cells; assay type: cell-based; conditions: Homo sapiens, read-out: Log10 LC50 (converted)
SK-MEL-28 = test: cells; assay type: cell-based; conditions: Homo sapiens; for CC50: read-out: Log10 LC50 (converted); for IC (TGI): read-out: Log10 TGI
UACC-257 = test: cells; assay type: cell-based
M14 = test: NCI 60 cell line panel screening assay (SRB), M14; conditions: Homo sapiens, M14, 48 h; for CC50: read-out: Log10 LC50 (converted)
SN12C = test: NCI 60 cell line panel screening assay (SRB), SN12C; assay type: cell-based; conditions: Homo sapiens, 48 h; for IC (TGI): renal cancer, read-out: Log10 TGI
OVCAR-5 = test: cells; assay type: cell-based; conditions: Homo sapiens; for GI50: read-out: Log10 GI50 (converted)
RXF 393 = test: cells; assay type: cell-based; conditions: Homo sapiens; for IC (TGI): RXF 393, renal cancer, 48 h, read-out: Log10 TGI
786-0 = test: cells; assay type: cell-based; conditions: Homo sapiens; for GI50: read-out: Log10 GI50 (converted)
U251 = test: cells; assay type: cell-based; conditions: Homo sapiens, read-out: Log10 GI50 (converted)
PC-3 = test: cells; assay type: cell-based; conditions: Homo sapiens, PC-3, prostate cancer, 48 h
RPMI-8226 = test: NCI 60 cell line panel screening assay (SRB), RPMI-8226; assay type: cell-based; conditions: Homo sapiens; for GI50: read-out: Log10 GI50 (converted)
MOLT-4 = conditions: MOLT-4, FIG. 6
HS 578T = test: cells; assay type: cell-based; conditions: Homo sapiens, 48 h, read-out: Log10 GI50 (converted)
COLO 205 = test: NCI 60 cell line panel screening assay (SRB), COLO 205; assay type: cell-based; conditions: Homo sapiens, read-out: Log10 GI50 (converted)
[1] = read-out: Log10 TGI (converted)
[2] = read-out: Log10 LC50 (converted)
[3] = Homo sapiens, UACC-257, 48 h; read-out: Log10 TGI (converted)
[4] = read-out: Log10 GI50 (converted)

## C[C@H]1[C@@H](F)O[C@@H]2O[C@@]3(C)CC[C@H]4[C@H](C)CC[C@@H]1[C@@]24OO3 [Compound VI, 10β-Fluoro-10-deoxoartemisinin]
SR
  CC50: > 100 µM
OVCAR-3; OVCAR-3, 48 h
  CC50: > 100 µM
OVCAR-3; OVCAR-3, ovarian cancer, 48 h, read-out: Log10 TGI (converted)
  IC (TGI): > 100 µM
60 cell line panel
  Delta of Log10 TGI: 1.18
  Range of Log10 TGI: 1.56
DU-145; Homo sapiens, DU-145, 48 h, read-out: Log10 LC50 (converted)
  CC50: > 100 µM
DU-145; Homo sapiens, DU-145, 48 h; read-out: Log10 GI50 (converted)
  GI50: 19.5 µM
DU-145; Homo sapiens, DU-145, 48 h; read-out: Log10 TGI
  IC (TGI): > 100 µM
HCT-15; HCT-15, 48 h
  CC50: > 100 µM
KM12; KM12, 48 h, read-out: Log10 LC50 (converted)
  CC50: > 100 µM
KM12; KM12, colon cancer, 48 h
  GI50: 0.437 µM
CCRF-CEM; leukemia
  CC50: > 100 µM
HT29; HT-29, 48 h, read-out: Log10 LC50 (converted)
  CC50: > 100 µM
HT29; HT-29, printed H129, colon cancer, 48 h, read-out: Log10 TGI
  IC (TGI): > 100 µM
OVCAR-8; OVCAR-8, 48 h, read-out: Log10 LC50 (converted)
  CC50: > 100 µM
HOP-62; [1]
  IC (TGI): 61.7 µM
MCF7; MCF7, 48 h, read-out: Log10 LC50 (converted)
  CC50: > 100 µM
MCF7; MCF7, breast cancer, 48 h
  IC (TGI): > 100 µM
CAKI-1; [1]
  IC (TGI): 21.4 µM
NCI-H23; [2]
  CC50: > 100 µM
SNB-75; SNB-75, 48 h
  CC50: > 100 µM
SNB-75; SNB-75, CNS cancer, 48 h, read-out: Log10 TGI
  IC (TGI): > 100 µM
K-562; K562, K-562, leukemia, 48 h
  CC50: > 100 µM
A498; A498, 48 h, read-out: Log10 LC50 (converted)
  CC50: > 100 µM
A498; A498, renal cancer, 48 h
  IC (TGI): > 100 µM
HOP-92; HOP-92, 48 h, read-out: Log10 LC50 (converted)
  CC50: > 100 µM
HOP-92; HOP-92, non-small cell lung cancer, 48 h, read-out: Log10 TGI (converted)
  IC (TGI): 21.4 µM
BT-549; BT-549, 48 h
  CC50: > 100 µM
SK-MEL-28; SK-MEL-28, 48 h
  CC50: > 100 µM
SK-MEL-28; SK-MEL-28, melanoma, 48 h
  IC (TGI): > 100 µM
UACC-257; Homo sapiens, UACC-257, 48 h, read-out: Log10 LC50 (converted)
  CC50: > 100 µM
UACC-257; [3]
  IC (TGI): > 100 µM
M14
  CC50: > 100 µM
M14; read-out: Log10 TGI
  IC (TGI): > 100 µM
SN12C; [2]
  CC50: > 100 µM
SN12C
  IC (TGI): > 100 µM
OVCAR-5; OVCAR-5, 48 h, read-out: Log10 LC50 (converted)
  CC50: > 100 µM
OVCAR-5; OVCAR-5, ovarian cancer, 48 h
  GI50: 17 µM
OVCAR-5; OVCAR-5, ovarian cancer, 48 h, read-out: Log10 TGI (converted)
  IC (TGI): > 100 µM
RXF 393; RXF 393, 48 h, read-out: Log10 LC50 (converted)
  CC50: > 100 µM
RXF 393
  IC (TGI): > 100 µM

## C[C@@H]1CC[C@H]2[C@@H](C)C(=O)O[C@@H]3O[C@@]4(C)CC[C@@H]1[C@]32OO4 [Artemisinin]
SR
  CC50: > 100 µM
SR; leukemia
  GI50: > 100 µM
60 cell line panel
  Delta of Log10 LC50: -4.00
  Range of Log10 TGI: 0.06
HCT-15; HCT-15, colon cancer, 48 h, read-out: Log10 GI50 (converted)
  GI50: > 100 µM
HCT-15; HCT-15, colon cancer, 48 h, read-out: Log10 TGI
  IC (TGI): > 100 µM
KM12; KM12, colon cancer, 48 h
  GI50: > 100 µM
HT29; HT-29, HT29, colon cancer, 48 h
  GI50: > 100 µM
OVCAR-8; OVCAR-8, ovarian cancer, 48 h, read-out: Log10 GI50 (converted)
  GI50: > 100 µM
HOP-62; [4]
  GI50: > 100 µM
MCF7; MCF7, breast cancer, 48 h
  GI50: > 100 µM
  IC (TGI): > 100 µM
NCI-H23; [4]
  GI50: > 100 µM
SNB-75; SNB-75, CNS cancer, 48 h
  GI50: > 100 µM
786-0; 786-0, renal cancer, 48 h
  GI50: > 100 µM
786-0; 786-0, renal cancer, 48 h, read-out: Log10 TGI
  IC (TGI): > 100 µM
U251; U-251, U251, CNS cancer, 48 h
  GI50: > 100 µM
K-562; K562, K-562, leukemia, 48 h, read-out: Log10 TGI (converted)
  IC (TGI): 100 µM
PC-3; read-out: Log10 TGI
  IC (TGI): > 100 µM
RPMI-8226; RPMI-8226, leukemia, 48 h
  GI50: > 100 µM
A498; A498, renal cancer, 48 h, read-out: Log10 GI50 (converted)
  GI50: > 100 µM
A498; A498, renal cancer, 48 h
  IC (TGI): > 100 µM
HOP-92; HOP-92, non-small cell lung cancer, 48 h, read-out: Log10 GI50 (converted)
  GI50: > 100 µM
MOLT-4
  concentration for cytostasis (PG 0): greater than 10^-4 M
SK-MEL-28; SK-MEL-28, melanoma, 48 h, read-out: Log10 GI50 (converted)
  GI50: > 100 µM
UACC-257; Homo sapiens, UACC-257, 48 h; read-out: Log10 GI50 (converted)
  GI50: > 100 µM
UACC-257; [3]
  IC (TGI): > 100 µM
M14
  CC50: > 100 µM
SN12C
  IC (TGI): > 100 µM
HS 578T; HS 578T, breast cancer
  GI50: > 100 µM
OVCAR-5; OVCAR-5, ovarian cancer, 48 h
  GI50: > 100 µM
COLO 205; COLO 205, colon cancer, 48 h
  GI50: > 100 µM
RXF 393
  IC (TGI): > 100 µM

## CC1CCC2C(C)C(CC(=O)c3ccc(C(=O)CC4OC5OC6(C)CCC7C(C)CCC(C4C)C57OO6)cc3)OC3OC4(C)CCC1C32OO4 (centres unmarked) [Dimer 38]
SR
  GI50: < 0.01 µM
SR; leukemia
  CC50: > 100 µM
OVCAR-3; OVCAR-3, ovarian cancer, 48 h
  CC50: > 100 µM
60 cell line panel
  Delta of Log10 TGI: 3.17
DU-145; Homo sapiens, DU-145, 48 h; read-out: Log10 LC50 (converted)
  CC50: > 100 µM
HCT-15; HCT-15, colon cancer, 48 h
  CC50: > 100 µM
KM12; KM12, 48 h
  GI50: < 0.01 µM
CCRF-CEM; [4]
  GI50: < 0.01 µM
CCRF-CEM
  CC50: > 100 µM
HT29; HT-29, 48 h
  GI50: < 0.01 µM
MCF7; MCF7, 48 h
  GI50: < 0.01 µM
CAKI-1; [4]
  GI50: 0.0112 µM
SNB-75; SNB-75, CNS cancer, 48 h
  GI50: 0.117 µM
  CC50: > 100 µM
786-0; 786-0, 48 h
  GI50: 0.0151 µM
U251; U-251, 48 h
  GI50: < 0.01 µM
K-562; K562, 48 h, read-out: Log10 GI50 (converted)
  GI50: < 0.01 µM
K-562; K562, 48 h
  CC50: > 100 µM
PC-3; [4]
  GI50: < 0.01 µM
RPMI-8226; RPMI-8226, 48 h, read-out: Log10 LC50 (converted)
  CC50: > 100 µM
RPMI-8226; RPMI-8226, leukemia, 48 h
  GI50: < 0.01 µM
RPMI-8226; RPMI-8226, leukemia, 48 h, read-out: Log10 TGI
  IC (TGI): < 0.01 µM
MOLT-4
  concentration for cytostasis (PG 0): approximately 10^-4 M
BT-549; BT-549, breast cancer, 48 h
  CC50: > 100 µM
SK-MEL-28; SK-MEL-28, melanoma, 48 h
  CC50: > 100 µM
  IC (TGI): > 100 µM
UACC-257; Homo sapiens, UACC-257, 48 h, read-out: Log10 GI50 (converted)
  GI50: 0.0209 µM
UACC-257; Homo sapiens, UACC-257, 48 h; read-out: Log10 LC50 (converted)
  CC50: > 100 µM
HS 578T; Hs-578T
  GI50: < 0.01 µM
COLO 205; COLO 205, 48 h
  GI50: < 0.01 µM
